{
  "source": "paper PMC3791872",
  "about": "(Bioscience Reports, 2013)",
  "key": {"Wild-type yeast": {"test_system": "Wild-type yeast", "assay": "Yeast growth inhibition, wild-type strain", "format": "cell-based, Saccharomyces cerevisiae", "conditions": "Figure 4A", "protocol": "S. cerevisiae growth inhibition was quantified using an established 96-well assay. Two isogenic W303 tester strains were used (construction details available upon request): UPY675 (matA, ade2-1, ura3-1, his3-11,15, trp1-1, leu2-3,112, can1-100, bar1::hisG, Δerg6::kanMX) and UPY1056 (isogenic to UPY675 but containing mcm4chaos3). Overnight yeast cultures were grown in YPD medium (1% (w/v) yeast extract/2% (w/v) peptone/2% (w/v) glucose), diluted to 0.05 A600, grown to an A600 of 0.1–0.15, divided into aliquots into a 96-well plate, and then treated with inhibitor titrations. Inhibitors were first diluted in pure DMSO, and then added to wells to a final volume of 100 μl containing 2% (v/v) DMSO. Plates were grown without shaking at 30°C for 24 h. Optical density was quantified at 0 and 24 h with a Bio-tek EL800 Universal Microplate reader. Percent relative growth was determined by calculating the change in optical density over 24 h at each concentration relative to a 2% DMSO control."}, "pUC19": {"test_system": "pUC19", "assay": "DNA intercalation assay (Topo I-relaxed plasmid)", "format": "biochemical", "conditions": "1 mM inhibitor added after plasmid relaxation (Figure 3C)", "from_the_text": "To examine this model, we tested our inhibitors in a standard topoisomerase assay. The rationale of this assay is that intercalating compounds will introduce supercoils into a fully relaxed plasmid. Topo I will remove these introduced supercoils, but after quenching and gel electrophoresis the intercalator will diffuse away and produce a detectable compensatory supercoiling increase."}, "Mcm467 [1]": {"target": "T1, Mcm467 (Saccharomyces cerevisiae, UniProt P30665+P38132+P53091)", "T1 construct": "made in house; host or cells: baculovirus-infected insect cells", "T1 sequence (P30665 whole entry)": "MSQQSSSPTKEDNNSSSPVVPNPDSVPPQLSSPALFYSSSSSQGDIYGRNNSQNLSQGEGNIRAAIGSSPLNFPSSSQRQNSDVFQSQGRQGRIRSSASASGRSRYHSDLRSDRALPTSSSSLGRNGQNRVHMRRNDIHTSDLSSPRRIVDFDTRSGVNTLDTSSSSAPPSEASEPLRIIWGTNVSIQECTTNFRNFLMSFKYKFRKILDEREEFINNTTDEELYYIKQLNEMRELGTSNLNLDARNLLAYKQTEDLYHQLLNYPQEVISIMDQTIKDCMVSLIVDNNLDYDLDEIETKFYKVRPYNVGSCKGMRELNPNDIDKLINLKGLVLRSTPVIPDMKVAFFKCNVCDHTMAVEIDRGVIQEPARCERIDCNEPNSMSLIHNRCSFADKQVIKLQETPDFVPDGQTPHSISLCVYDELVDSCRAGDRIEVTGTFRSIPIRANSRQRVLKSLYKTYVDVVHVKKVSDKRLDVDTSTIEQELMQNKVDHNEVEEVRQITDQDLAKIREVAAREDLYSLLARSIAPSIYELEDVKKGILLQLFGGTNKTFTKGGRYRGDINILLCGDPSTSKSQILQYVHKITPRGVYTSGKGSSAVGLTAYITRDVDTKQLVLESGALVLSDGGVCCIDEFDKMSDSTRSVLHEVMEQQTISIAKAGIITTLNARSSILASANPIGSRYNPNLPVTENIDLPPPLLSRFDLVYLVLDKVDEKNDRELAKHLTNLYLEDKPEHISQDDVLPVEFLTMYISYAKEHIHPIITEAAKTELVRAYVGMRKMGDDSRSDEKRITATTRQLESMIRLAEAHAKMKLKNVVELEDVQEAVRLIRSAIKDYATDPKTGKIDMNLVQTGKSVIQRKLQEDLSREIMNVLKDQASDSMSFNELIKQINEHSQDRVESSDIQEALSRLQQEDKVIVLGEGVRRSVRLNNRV", "T1 sequence (P53091 whole entry)": "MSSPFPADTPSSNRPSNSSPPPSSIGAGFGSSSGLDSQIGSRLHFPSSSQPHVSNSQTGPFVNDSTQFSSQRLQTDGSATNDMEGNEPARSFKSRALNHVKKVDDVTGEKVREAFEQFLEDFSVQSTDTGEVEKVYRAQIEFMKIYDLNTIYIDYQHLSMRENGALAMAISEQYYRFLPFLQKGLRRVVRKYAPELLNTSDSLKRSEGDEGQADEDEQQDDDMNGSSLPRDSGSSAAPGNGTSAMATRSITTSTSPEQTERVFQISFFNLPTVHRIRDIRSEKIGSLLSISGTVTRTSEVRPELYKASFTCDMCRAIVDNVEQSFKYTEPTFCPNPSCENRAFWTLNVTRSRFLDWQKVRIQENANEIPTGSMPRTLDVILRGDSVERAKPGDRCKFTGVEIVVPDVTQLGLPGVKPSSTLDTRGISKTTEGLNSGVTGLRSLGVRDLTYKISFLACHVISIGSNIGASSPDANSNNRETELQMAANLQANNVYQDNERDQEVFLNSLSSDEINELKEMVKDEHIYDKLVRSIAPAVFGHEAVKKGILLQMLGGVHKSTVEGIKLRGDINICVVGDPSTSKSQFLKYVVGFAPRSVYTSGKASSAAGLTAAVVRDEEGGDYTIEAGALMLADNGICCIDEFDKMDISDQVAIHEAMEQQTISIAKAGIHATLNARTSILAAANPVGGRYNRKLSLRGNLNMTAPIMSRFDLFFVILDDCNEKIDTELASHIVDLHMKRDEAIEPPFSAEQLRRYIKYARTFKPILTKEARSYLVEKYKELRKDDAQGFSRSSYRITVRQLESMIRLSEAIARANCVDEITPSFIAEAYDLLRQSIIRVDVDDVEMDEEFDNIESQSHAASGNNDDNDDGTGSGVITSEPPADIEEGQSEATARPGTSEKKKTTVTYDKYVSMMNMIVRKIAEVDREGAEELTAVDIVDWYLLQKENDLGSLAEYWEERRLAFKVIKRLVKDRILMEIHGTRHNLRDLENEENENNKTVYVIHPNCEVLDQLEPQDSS", "T1 sequence (P38132 whole entry)": "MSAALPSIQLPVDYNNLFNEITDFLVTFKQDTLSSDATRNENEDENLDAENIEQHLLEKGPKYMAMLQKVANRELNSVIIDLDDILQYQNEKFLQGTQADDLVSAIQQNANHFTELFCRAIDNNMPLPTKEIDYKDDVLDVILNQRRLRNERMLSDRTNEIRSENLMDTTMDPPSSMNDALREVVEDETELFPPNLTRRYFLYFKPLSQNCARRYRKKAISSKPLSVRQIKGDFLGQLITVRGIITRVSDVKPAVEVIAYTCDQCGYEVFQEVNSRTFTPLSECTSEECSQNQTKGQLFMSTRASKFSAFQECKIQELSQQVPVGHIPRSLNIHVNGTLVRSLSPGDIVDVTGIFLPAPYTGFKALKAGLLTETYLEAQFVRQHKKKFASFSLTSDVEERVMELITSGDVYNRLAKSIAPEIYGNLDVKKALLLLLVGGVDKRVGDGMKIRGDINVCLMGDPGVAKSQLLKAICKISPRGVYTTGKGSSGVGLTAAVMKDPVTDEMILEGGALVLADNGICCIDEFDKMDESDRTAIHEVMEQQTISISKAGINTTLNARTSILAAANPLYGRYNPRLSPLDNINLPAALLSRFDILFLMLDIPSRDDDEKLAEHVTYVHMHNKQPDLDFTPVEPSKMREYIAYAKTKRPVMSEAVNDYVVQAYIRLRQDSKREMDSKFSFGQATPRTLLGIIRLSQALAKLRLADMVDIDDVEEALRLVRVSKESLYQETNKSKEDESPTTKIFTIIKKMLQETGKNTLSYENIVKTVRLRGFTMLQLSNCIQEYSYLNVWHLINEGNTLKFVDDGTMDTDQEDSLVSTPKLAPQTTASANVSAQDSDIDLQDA", "assay": "Mcm467 helicase (DNA unwinding) assay", "format": "biochemical", "conditions": "DNA unwinding, 100 nM hexamer, inhibitor preincubation; […]; read-out: IC50 Mcm467"}, "RPE-hTERT cells": {"test_system": "RPE-hTERT cells", "assay": "Human cell viability, MTS method", "format": "cell-based", "conditions": "Homo sapiens, 48 h, value (95% CI)", "protocol": "Ciproﬂoxacin is an inhibitor of the Mcm2-7 […]\nThe viability of human cells was assayed using the MTS method\n[1]. Brieﬂy, 1 ×10^5 cells of the human non-tumour cell line RPE-hTERT were plated into each well of a 96-well plate and grown in DMEM: F12 containing 10 % (v/v) FBS in 5 % (v/v) CO2 at 37 ◦ C. The next day, the indicated compounds were titrated into media such that the ﬁnal concentration contained 1 % (v/v)\nDMSO. As a negative control, media were also prepared that contained 1 % DMSO but lacked compound. After 48 h, the media was removed and replaced with DMEM lacking phenol red but containing Cell Titer 96 Aqueous One Solution Cell Proliferation\nAssay (Promega). After 1 h, the A490 nm was measured using a BioRad iMark Microplate Reader (Hercules). Final data reﬂect the average and standard deviation (S.D.) of three replicates at each compound concentration. […]"}, "Mcm467 [2]": {"target": "T1, Mcm467", "assay": "Steady-state ATP hydrolysis by Mcm467", "format": "biochemical", "conditions": "1 mM compound, 100 nM hexamer"}, "Mcm2-7": {"test_system": "T2, Mcm2-7", "T2 construct": "made in house; host or cells: baculovirus-infected insect cells", "assay": "Steady-state ATP hydrolysis by Mcm2-7", "format": "biochemical, Saccharomyces cerevisiae", "conditions": "1 mM compound, 100 nM hexamer"}, "DnaB": {"target": "DnaB (Escherichia coli, UniProt P0ACB0)", "sequence (P0ACB0 whole entry, the tested form may be a part)": "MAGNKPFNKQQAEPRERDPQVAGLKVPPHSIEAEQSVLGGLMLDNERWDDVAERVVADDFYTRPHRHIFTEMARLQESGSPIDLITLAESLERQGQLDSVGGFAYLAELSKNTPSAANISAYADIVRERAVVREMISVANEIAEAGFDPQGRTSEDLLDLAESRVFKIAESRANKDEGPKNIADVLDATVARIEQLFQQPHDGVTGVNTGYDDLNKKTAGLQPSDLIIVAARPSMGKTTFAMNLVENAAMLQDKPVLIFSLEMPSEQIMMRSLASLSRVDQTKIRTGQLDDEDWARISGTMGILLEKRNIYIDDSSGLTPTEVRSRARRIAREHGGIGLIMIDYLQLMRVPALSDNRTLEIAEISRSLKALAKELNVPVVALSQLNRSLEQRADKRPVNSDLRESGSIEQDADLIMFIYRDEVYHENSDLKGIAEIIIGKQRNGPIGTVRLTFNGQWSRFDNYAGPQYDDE", "assay": "DnaB helicase assay", "format": "biochemical", "conditions": "1 mM, Figure S3", "protocol": "Helicase assays were performed essentially as described. Synthetic replication forks were prepared by annealing oligos 233 and 235 [IDT (Coralville), oligo 233 5′(T)40[…]; oligo 235 5′ […](T)40] and then filling in the recessed 3′-end with [α32P]dATP and unlabelled dNTPs using Klenow Fragment. Briefly, reactions ([…]) were performed in 1× helicase assay buffer [20 mM Tris/HCl (pH 7.5), 10 mM MgOAc, 20% (v/v) glycerol, 100 μM EDTA and 5 mM DTT (dithiothreitol)] and contained a final concentration of 1 nM fork substrate, 5 mM ATP, 40 mM creatine phosphate, […] creatine kinase, 33 μg/ml BSA. Reactions containing Mcm2-7 and Mcm467 were supplemented with 200 mM potassium glutamate. Reactions containing SsoMcm were incubated at 65°C, those containing T4 gp41 were incubated for 30 min at 37°C, and all other reactions were incubated at 37°C for 1 h. The products were separated by 10% (w/v) native PAGE, the resulting gels dried and the radioactivity quantified using a Fuji FLA-5100 phosphoimager. Irrespective of the protein used, all helicase assays contained equal molar helicase concentrations (100 nM, assuming in all cases that the active helicase form is hexameric). Steady-state ATP hydrolysis was assayed as published. In short, reactions were set up essentially as in the helicase assay, with minor exceptions. A non-radiolabelled DNA fork was used, helicase concentration was 100 nM (hexamer) the total ATP concentration was 500 μM and included ~0.5 μCi of [α32P]ATP, and the ATP regeneration system was omitted. Reactions were incubated for 1 h at 37°C and stopped by the addition of SDS. ATP was separated from ADP by PEI (polyethyleneimine) thin layer chromatography, and the ratio of ATP:ADP was quantified using a Fuji FLA-5100 phosphoimager. Based on our prior work, conditions were established to ensure that the results shown are within the linear range of the assay. Protein–ssDNA binding was determined with a double filter-binding assay using an ssDNA probe (oligo 826, 5′[…]) that was 5′-radiolabelled using T4 polynucleotide kinase and [γ32P]ATP [16]. For the double filter-binding assay, the helicase concentration was 150 nM (hexamer) and the ssDNA concentration was 4 nM. For all biochemical assays, helicases were preincubated with inhibitors for 20 min at 37°C unless otherwise indicated. […]\nagainst different helicases\nRepresentative helicase activity assays in the presence of the indicated inhibitor were tested, quantiﬁed and standardized as described in the legend to F igures 2 (A) and (B). All helicases were assayed at 100 nM\nﬁnal concentration (hexamer) with inhibitor preincubation prior to ATP […]\nF igure S3 Ciproﬂoxacin poor ly inhibits hexameric helicases un- […]\nAll inhibitors were used at 1 mM ﬁnal concentration. […]"}, "SV40 large TAg": {"target": "T3, SV40 large TAg (Simian virus 40, UniProt P03070)", "T3 construct": "made in house", "T3 sequence (P03070 whole entry)": "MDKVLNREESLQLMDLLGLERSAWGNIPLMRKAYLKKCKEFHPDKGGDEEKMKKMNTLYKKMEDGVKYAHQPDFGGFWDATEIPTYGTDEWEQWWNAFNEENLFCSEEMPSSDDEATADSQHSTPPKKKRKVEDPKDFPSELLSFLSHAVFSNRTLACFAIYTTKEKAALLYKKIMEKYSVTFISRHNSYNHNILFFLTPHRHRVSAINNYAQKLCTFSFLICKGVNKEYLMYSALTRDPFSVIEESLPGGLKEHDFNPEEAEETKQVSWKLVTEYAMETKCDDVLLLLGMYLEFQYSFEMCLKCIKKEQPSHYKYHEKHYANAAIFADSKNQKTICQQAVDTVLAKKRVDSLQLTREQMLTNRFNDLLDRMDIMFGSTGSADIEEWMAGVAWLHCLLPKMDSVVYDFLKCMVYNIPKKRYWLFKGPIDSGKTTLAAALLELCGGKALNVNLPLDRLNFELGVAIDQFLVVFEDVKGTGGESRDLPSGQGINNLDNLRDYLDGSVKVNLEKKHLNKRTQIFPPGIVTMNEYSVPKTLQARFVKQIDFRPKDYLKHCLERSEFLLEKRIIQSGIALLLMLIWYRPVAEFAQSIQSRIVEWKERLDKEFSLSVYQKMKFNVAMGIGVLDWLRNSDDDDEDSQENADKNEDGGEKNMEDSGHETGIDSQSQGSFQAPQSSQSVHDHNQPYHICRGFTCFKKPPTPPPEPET", "assay": "Steady-state ATP hydrolysis by TAg", "format": "biochemical, SV40 (simian virus 40)", "conditions": "1 mM compound, 100 nM hexamer"}},
  "data": [
    {"smiles": "O=C(O)c1cn(C2CC2)c2cc(N3CCNCC3)c(F)cc2c1=O", "note": "[Ciprofloxacin, ciprofloxacin, reference compound]", "values": [
      {"measurement": "growth response of wild-type yeast", "setting": "Wild-type yeast", "result": "resistant"},
      {"measurement": "DNA intercalation", "setting": "pUC19", "result": "little or no intercalation"},
      {"measurement": "IC50", "setting": "Mcm467 [1]", "result": 1890, "unit": "µM"},
      {"measurement": "IC50", "setting": "RPE-hTERT cells", "result": 240, "unit": "µM"},
      {"measurement": "effect on ATP hydrolysis of Mcm467", "setting": "Mcm467 [2]", "result": "only modest effects"},
      {"measurement": "effect on ATP hydrolysis of Mcm2-7", "setting": "Mcm2-7", "result": "only modest effects"},
      {"measurement": "inhibition of DnaB helicase", "setting": "DnaB", "result": "none of the tested helicases were substantially inhibited"},
      {"measurement": "effect on ATP hydrolysis of TAg", "setting": "SV40 large TAg", "result": "only modest effects"}
    ]}
  ]
}
